Drawing on US6809106B1, “Quinoline derivatives as inhibitors of MEK enzymes” (AstraZeneca AB, priority 1999, dated 2004), this text covers IC50 for two molecules.

Assay [1] has as its target human p45MEK1 (GST-MEK) (Homo sapiens, UniProt Q02750). The experiment in a line: Assay for inhibitors of the MAP kinase pathway (coupled GST-MEK/GST-MAPK/MBP 33P assay). It counts as biochemical. The following applies: GST-MEK activated by c-raf, MBP substrate, 8.33 μM ATP. How it is done:
Assay for Inhibitors of the MAP Kinase Pathway
To evaluate inhibitors of the MAPK pathway a coupled assay was carried out which measures phosphorylation of serine/threonine residues present in the substrate in the presence or absence of inhibitor. Recombinant glutathione S-transferase fusion protein containing human p45MEK1 (GST-MEK) was activated by c-raf (Sf9 insect cell lysate from triple baculoviral infection with c-raf/ras/lck) and used for the assay. Active GST-MEK was first used to activate a recombinant glutathione S-transferase fusion protein containing p44MAP kinase (GST-MAPK) in the presence of ATP and Mg^2+ for 60min at room temperature in the presence or absence of potential inhibitors. The activated GST-MAPK was then incubated with myelin basic protein (MBP) as substrate for 10 min at room temperature in the presence of ATP, Mg^2+ and ^33P-ATP. The reaction was stopped by addition of 20% v/v phosphoric acid. Incorporation of ^33P into the myelin basic protein was determined by capture of the substrate on a filter mat, washing and counting using scintillation methods. The extent of inhibition was determined by comparison with untreated controls.
The final assay solution contained 10 mM Tris, pH 7.5, 0.05 mM EGTA, 8.33 μM [γ^33P]ATP, 8.33 mM Mg(OAc)2, 0.5 mM sodium orthovanadate, 0.05% w/v BSA, 6.5 ng GST-MEK, 1 μg GST-MAPK and 16.5 μg MBP in a reaction volume of […].

The subject of assay [2] is HT29 human colon tumour cells. Description: Cell proliferation assays. The class given is cell-based. The following applies: 72 hours incubation. How it is done: Cell Proliferation Assays
Cells were seeded into multi-well plates at 20 000-40 000 cells/ml in growth medium containing 5% FCS and incubated overnight at 37° C. The compounds were prepared in fresh medium at an appropriate concentration and added to the wells containing the cells. These were then incubated for a further 72 hours. Cells were then either removed from the wells by incubating with trypsin/EDTA and counted using a Coulter counter, or treated with KIT/PMS in PBSA and optical densities read at […].

Sequence of human p45MEK1 (GST-MEK) (Q02750 whole entry): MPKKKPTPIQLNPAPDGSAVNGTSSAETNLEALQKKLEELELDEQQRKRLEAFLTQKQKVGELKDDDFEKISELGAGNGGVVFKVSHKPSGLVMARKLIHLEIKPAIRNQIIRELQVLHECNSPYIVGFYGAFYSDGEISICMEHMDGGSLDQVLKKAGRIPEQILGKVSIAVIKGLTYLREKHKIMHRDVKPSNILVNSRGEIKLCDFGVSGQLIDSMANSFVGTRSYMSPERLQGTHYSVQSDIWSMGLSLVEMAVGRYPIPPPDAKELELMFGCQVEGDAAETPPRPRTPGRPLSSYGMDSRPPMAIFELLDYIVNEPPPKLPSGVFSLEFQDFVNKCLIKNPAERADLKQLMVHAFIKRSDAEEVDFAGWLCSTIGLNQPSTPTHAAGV

By IC50 is commonly meant the concentration at which inhibition is half-maximal. Low readings indicate greater potency in that assay, high ones weaker potency in that assay. `COc1cc2ncc(Cl)c(Nc3ccc(Cl)c(Cl)c3)c2cc1OC` [Compound 5] came in with an IC50 in assay [1] of 1530 nM. `COc1cc2ncc(Cl)c(Nc3ccc(Oc4ccccc4OC)cc3)c2cc1OC` [Compound 1, 4-(2-methoxyphenoxy)-anilino-3-chloro-6,7-dimethoxyquinoline] gave an IC50 in assay [2] of 3400 nM.
